Measurements taken from patent US20250312258A1, “2,3-PYRROLIDINEDIONE CONJUGATES AND METHODS OF USING THEREOF” (North Carolina State University, priority 2022, published 2025).
Converted amounts (≈) assume the structure as drawn.

What was measured:
[1] = test system: MSSA; assay: MIC against MSSA strain panel; format: cell-based; details: Staphylococcus aureus, the 4th table
[2] = test system: VRE; assay: MIC / in vitro activity against VRE strain panel; format: cell-based, Enterococcus spp.
[3] = test system: Group B Strep; assay: MIC against Group B Strep strain panel; format: cell-based
[4] = test system: VRSA; assay: MIC against VRSA strain panel (VRS/NRS strains); format: cell-based; details: Staphylococcus aureus

CN[C@H](CC(C)C)C(=O)N[C@H]1C(=O)N[C@@H](CC(N)=O)C(=O)N[C@H]2C(=O)N[C@H]3C(=O)N[C@H](C(=O)N[C@H](C(=O)O)c4cc(O)cc(O)c4-c4cc3ccc4O)[C@H](O)c3ccc(c(Cl)c3)Oc3cc2cc(c3O[C@@H]2O[C@H](CO)[C@@H](O)[C@H](O)[C@H]2O[C@H]2C[C@](C)(N)[C@H](O)[C@H](C)O2)Oc2ccc(cc2Cl)[C@H]1O [Vancomycin, vancomycin, reference compound]
MIC ([1]; VGP16-94 MSSA): 0.5 µg/mL (≈ 0.345 µM) | MIC ([1]; VGP16-95 MSSA): 0.5 µg/mL (≈ 0.345 µM) | MIC ([1]; VGP16-96 MSSA): 0.5 µg/mL (≈ 0.345 µM) | MIC ([1]; VGP16-97 MSSA): 0.5 µg/mL (≈ 0.345 µM) | MIC ([1]; VGP16-98 MSSA): 0.5 µg/mL (≈ 0.345 µM) | MIC ([1]; VGP16-99 MSSA): 1 µg/mL (≈ 0.69 µM) | MIC ([1]; VGP16-100 MSSA): 0.5 µg/mL (≈ 0.345 µM) | MIC ([1]; VGP16-101 MSSA): 1 µg/mL (≈ 0.69 µM) | MIC ([1]; VGP16-116 MSSA): 0.5 µg/mL (≈ 0.345 µM) | MIC ([1]; VGP16-117 MSSA): 0.5 µg/mL (≈ 0.345 µM) | MIC ([2]; 1593 (VRE), the 3rd table): >64 µg/mL | MIC ([2]; 1593 VRE, the 4th table): >64 µg/mL | MIC ([2]; 1751 (VRE), the 3rd table): >64 µg/mL | MIC ([2]; 1751 VRE, the 6th table): >64 µg/mL | MIC ([2]; 1772 VRE, the 6th table): >64 µg/mL | MIC ([2]; 1946 VRE, the 6th table): >64 µg/mL | MIC ([2]; 2059 VRE, the 6th table): >64 µg/mL | MIC ([2]; 2431 VRE, the 6th table): >64 µg/mL | MIC ([2]; 2574 VRE, the 6th table): >64 µg/mL | MIC ([2]; 3053 VRE, the 6th table): >64 µg/mL | MIC ([2]; 3183 (VRE), the 3rd table): >64 µg/mL | MIC ([2]; 3183 VRE, the 6th table): >64 µg/mL | MIC ([2]; 3190 VRE, the 6th table): >64 µg/mL | MIC ([2]; 3191 VRE, the 6th table): >64 µg/mL | MIC ([2]; 3222 (VRE, the 3rd table)): >64 µg/mL | MIC ([2]; 3222 VRE, the 6th table): >64 µg/mL | MIC ([2]; 3235 VRE, the 6th table): >64 µg/mL | MIC ([2]; 3239 VRE, the 6th table): >64 µg/mL | MIC ([2]; 3241 VRE, the 6th table): >64 µg/mL | MIC ([2]; 3623 VRE, the 6th table): >64 µg/mL | MIC ([2]; Enterococcus, VRE): > 64 µg/mL | MIC ([3]; 2008-57 Group B Strep, the 9th table): 0.5 µg/mL (≈ 0.345 µM) | MIC ([3]; 2008-70 Group B Strep, the 9th table): 0.5 µg/mL (≈ 0.345 µM) | MIC ([3]; 2008-87 Group B Strep, CA-MHB w/5% LHB, the 4th table): 0.5 µg/mL (≈ 0.345 µM) | MIC ([3]; 2008-115 Group B Strep, the 9th table): 0.5 µg/mL (≈ 0.345 µM) | MIC ([3]; 2009-20 Group B Strep, the 9th table): 0.5 µg/mL (≈ 0.345 µM) | MIC ([3]; 2009-40 Group B Strep, the 9th table): 0.5 µg/mL (≈ 0.345 µM) | MIC ([3]; 2009-43 Group B Strep, the 9th table): 0.5 µg/mL (≈ 0.345 µM) | MIC ([3]; 2009-51 Group B Strep, the 9th table): 0.5 µg/mL (≈ 0.345 µM) | MIC ([3]; 2009-57 Group B Strep, the 9th table): 0.5 µg/mL (≈ 0.345 µM) | MIC ([3]; 2009-59 Group B Strep, the 9th table): 0.5 µg/mL (≈ 0.345 µM) | MIC ([3]; 2009-60 Group B Strep, the 9th table): 0.5 µg/mL (≈ 0.345 µM) | MIC ([3]; 2009-61 Group B Strep, CA-MHB w/5% LHB, the 4th table): 0.5 µg/mL (≈ 0.345 µM) | MIC ([3]; 2009-62 Group B Strep, CA-MHB w/5% LHB, the 4th table): 0.5 µg/mL (≈ 0.345 µM) | MIC ([3]; J4182 Group B Strep, the 9th table): 0.25 µg/mL (≈ 0.173 µM) | MIC ([3]; J4183 Group B Strep, the 9th table): 0.5 µg/mL (≈ 0.345 µM) | MIC ([3]; J4185 Group B Strep, the 9th table): 0.5 µg/mL (≈ 0.345 µM) | MIC ([3]; J4186 Group B Strep, the 9th table): 0.5 µg/mL (≈ 0.345 µM) | MIC ([3]; J4222 Group B Strep, the 9th table): 0.5 µg/mL (≈ 0.345 µM) | MIC ([4]; NRS 1 / VRSA, NRS-1 (VRSA), the 3rd table): 8 µg/mL (≈ 5.52 µM) | MIC ([4]; NRS 1 / VRSA, NRS-1 VRSA, the 5th table): 8 µg/mL (≈ 5.52 µM) | MIC ([4]; NRS 2 / VRSA, NRS-2 VRSA, the 5th table): 1 µg/mL (≈ 0.69 µM) | MIC ([4]; VRSA, VRS-1 (VRSA), the 3rd table): > 64 µg/mL | MIC ([4]; VRSA, VRS-1 VRSA, the 5th table): > 64 µg/mL | MIC ([4]; VRSA, VRS-2 (VRSA), the 3rd table): 32 µg/mL (≈ 22.1 µM) | MIC ([4]; VRSA, VRS-2 VRSA, the 5th table): 32 µg/mL (≈ 22.1 µM) | MIC ([4]; VRSA, VRS-3a VRSA, the 5th table): 32 µg/mL (≈ 22.1 µM) | MIC ([4]; VRSA, VRS-3b VRSA, the 5th table): > 64 µg/mL | MIC ([4]; VRSA, VRS-4 (VRSA), the 3rd table): 32 µg/mL (≈ 22.1 µM) | MIC ([4]; VRSA, VRS-4 VRSA, the 5th table): > 64 µg/mL | MIC ([4]; VRSA, VRS-5 VRSA, the 5th table): > 64 µg/mL
